Data reported in patent US7906518B2, “Therapeutic compounds” (CBT Development Limited, priority 2006, dated 2011).

Experiments:
adenosine A2A receptor = adenosine A2A receptor (Homo sapiens, UniProt P29274); assay: EC50 at the adenosine A2A receptor; type: biochemical
[1] = test system: streptozocin induced static allodynia; assay: streptozocin-induced diabetic neuropathy, static allodynia (von Frey hairs); type: in vivo; settings: rats
Procedure: Diabetes was induced by a single i.p. injection of 50 mg/kg streptozocin (Sigma, 50 mg/ml/kg in citrate buffered saline 33 mM pH 4.5). Control animals received single i.p. injection of citrate buffered saline.

[2] = monkey, multiple oral dosing, 14C-labelled; cited from earlier work

Chain of adenosine A2A receptor (P29274 whole entry): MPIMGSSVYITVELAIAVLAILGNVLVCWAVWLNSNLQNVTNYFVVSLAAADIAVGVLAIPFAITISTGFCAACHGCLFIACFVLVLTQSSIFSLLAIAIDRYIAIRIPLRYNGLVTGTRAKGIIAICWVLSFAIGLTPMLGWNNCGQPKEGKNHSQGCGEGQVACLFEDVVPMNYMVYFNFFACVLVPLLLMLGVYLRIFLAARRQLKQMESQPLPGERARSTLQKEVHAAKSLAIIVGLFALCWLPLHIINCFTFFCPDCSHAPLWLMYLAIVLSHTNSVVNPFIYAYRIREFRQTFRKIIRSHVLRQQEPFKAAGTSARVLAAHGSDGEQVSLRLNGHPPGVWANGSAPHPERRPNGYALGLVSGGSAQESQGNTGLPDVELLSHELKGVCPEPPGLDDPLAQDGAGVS

| SMILES | EC50 (adenosine A2A receptor) [nM] | reversal of streptozocin induced static allodynia (PWT), all doses ([1]; 0.6-[…] po) | reversal of streptozocin induced static allodynia (PWT), top dose ([1]; top dose […] po) | drug level in red blood cells compared to Ribavarin [2] | drug level in the liver compared to Ribavarin [2] |
| --- | --- | --- | --- | --- | --- |
| COc1nc(N)c2ncn([C@@H]3O[C@H](CO)[C@@H](O)[C@H]3O)c2n1 [Spongosine, 2-methoxyadenosine] | ~1000 | All doses were effective at reversing allodynia | fully reversed the allodynia |  |  |
| N=C(N)c1ncn([C@@H]2O[C@H](CO)[C@@H](O)[C@H]2O)n1 [Viramidine] |  |  |  | only half in red blood cells | three times the drug level in the liver |
